PubChem BioAssay AID2060341 (Molecular Pharmacology Branch, DTP, NCI, 2025)

Tested on: 327498-153-R-J2-PDC multicell spheroid viability
Assay: Anticancer human tumor 327498-153-R-J2-PDC patient-derived uterine carcinosarcoma cell line growth inhibition [IpAb]
Details: for IC50: curve of first compound; for viability, T/C: stronger effect = lower value
Summary of the method: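 Multi-cell spheroids of 60% tumour cells, 25% HUVEC and 15% MSC in ultra-low-attachment U-bottom wells, treated with agents combined with ipatasertib or abemaciclib. Half-log ranges top out near clinical Cmax, or 10 microM when Cmax is unknown.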

[1] = second compound 0.01 µM, first compound 0.000316 µM
[2] = second compound 0.01 µM, first compound 0.001 µM
[3] = second compound 0.01 µM, first compound 0.00316 µM
[4] = second compound 0.01 µM, first compound 0.01 µM
[5] = second compound 0.01 µM, first compound 0.0316 µM
[6] = second compound 0.01 µM, first compound 0.1 µM
[7] = second compound 0.0316 µM, first compound 0.000316 µM
[8] = second compound 0.0316 µM, first compound 0.001 µM
[9] = second compound 0.0316 µM, first compound 0.00316 µM
[10] = second compound 0.0316 µM, first compound 0.01 µM
[11] = second compound 0.0316 µM, first compound 0.0316 µM
[12] = second compound 0.0316 µM, first compound 0.1 µM
[13] = second compound 0.1 µM, first compound 0.000316 µM
[14] = second compound 0.1 µM, first compound 0.001 µM
[15] = second compound 0.1 µM, first compound 0.00316 µM
[16] = second compound 0.1 µM, first compound 0.01 µM
[17] = second compound 0.1 µM, first compound 0.0316 µM
[18] = second compound 0.1 µM, first compound 0.1 µM
[19] = second compound 0.316 µM, first compound 0.000316 µM
[20] = second compound 0.316 µM, first compound 0.001 µM
[21] = second compound 0.316 µM, first compound 0.00316 µM
[22] = second compound 0.316 µM, first compound 0.01 µM
[23] = second compound 0.316 µM, first compound 0.0316 µM
[24] = second compound 0.316 µM, first compound 0.1 µM
[25] = second compound 1 µM, first compound 0.000316 µM
[26] = second compound 1 µM, first compound 0.001 µM
[27] = second compound 1 µM, first compound 0.00316 µM
[28] = second compound 1 µM, first compound 0.01 µM
[29] = second compound 1 µM, first compound 0.0316 µM
[30] = second compound 1 µM, first compound 0.1 µM
[31] = second compound 0.1 µM, first compound 0.316 µM
[32] = second compound 0.1 µM, first compound 1 µM
[33] = second compound 0.316 µM, first compound 0.316 µM
[34] = second compound 0.316 µM, first compound 1 µM
[35] = second compound 1 µM, first compound 0.316 µM
[36] = second compound 1 µM, first compound 1 µM
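Note: spheroids exposed to agents for 7 days.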
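Throughout, for viability, T/C: 100% = DMSO vehicle control viability.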

CC(C)n1nc(-c2ccc3oc(N)nc3c2)c2c(N)ncnc21 + CCN1CCN(Cc2ccc(Nc3ncc(F)c(-c4cc(F)c5nc(C)n(C(C)C)c5c4)n3)nc2)CC1
IC50 (second compound 0.01 µM): 7.33 nM
IC50 (second compound 0.0316 µM): 4.58 nM
IC50 (second compound 0.1 µM): 2.01 nM
IC50 (second compound 0.316 µM): 1.03 nM
IC50 (second compound 1 µM): 1.17 nM
viability, T/C [1]: 90.9%
viability, T/C [2]: 77.3%
viability, T/C [3]: 68.1%
viability, T/C [4]: 45.6%
viability, T/C [5]: 21.2%
viability, T/C [6]: 16.1%
viability, T/C [7]: 68.7%
viability, T/C [8]: 73.6%
viability, T/C [9]: 53.8%
viability, T/C [10]: 37.1%
viability, T/C [11]: 19.8%
viability, T/C [12]: 14.8%
viability, T/C [13]: 58.2%
viability, T/C [14]: 50.3%
viability, T/C [15]: 49.8%
viability, T/C [16]: 31.4%
viability, T/C [17]: 20.7%
viability, T/C [18]: 14.6%
viability, T/C [19]: 59.2%
viability, T/C [20]: 50.1%
viability, T/C [21]: 39.5%
viability, T/C [22]: 28.5%
viability, T/C [23]: 20.3%
viability, T/C [24]: 15.2%
viability, T/C [25]: 56.9%
viability, T/C [26]: 50.8%
viability, T/C [27]: 46.3%
viability, T/C [28]: 35.7%
viability, T/C [29]: 23.1%
viability, T/C [30]: 19.9%

COc1c(OCCCN2CCOCC2)ccc2c3n(c(=NC(=O)c4cnc(N)nc4)nc12)CCN3 + CCN1CCN(Cc2ccc(Nc3ncc(F)c(-c4cc(F)c5nc(C)n(C(C)C)c5c4)n3)nc2)CC1
IC50 (second compound 0.01 µM): 63.7 nM
IC50 (second compound 0.0316 µM): 32.1 nM
IC50 (second compound 0.1 µM): 13.9 nM
IC50 (second compound 0.316 µM): 5.63 nM
IC50 (second compound 1 µM): 6.38 nM
viability, T/C [3]: 81.9%
viability, T/C [4]: 78.5%
viability, T/C [5]: 70.9%
viability, T/C [6]: 36.3%
viability, T/C (second compound 0.01 µM, first compound 0.316 µM): 16.8%
viability, T/C (second compound 0.01 µM, first compound 1 µM): 9.29%
viability, T/C [9]: 70.9%
viability, T/C [10]: 60.8%
viability, T/C [11]: 52.5%
viability, T/C [12]: 24.9%
viability, T/C (second compound 0.0316 µM, first compound 0.316 µM): 12.4%
viability, T/C (second compound 0.0316 µM, first compound 1 µM): 8.64%
viability, T/C [15]: 63%
viability, T/C [16]: 55.5%
viability, T/C [17]: 37.4%
viability, T/C [18]: 22.6%
viability, T/C [31]: 12.3%
viability, T/C [32]: 9.1%
viability, T/C [21]: 51.6%
viability, T/C [22]: 48.6%
viability, T/C [23]: 38%
viability, T/C [24]: 23.3%
viability, T/C [33]: 15.3%
viability, T/C [34]: 10.6%
viability, T/C [27]: 51.9%
viability, T/C [28]: 49.2%
viability, T/C [29]: 39.8%
viability, T/C [30]: 26.6%
viability, T/C [35]: 17.7%
viability, T/C [36]: 10.6%

C=CCn1c(=O)c2cnc(Nc3ccc(N4CCN(C)CC4)cc3)nc2n1-c1cccc(C(C)(C)O)n1 + CC(C)NCC(C(=O)N1CCN(c2ncnc3c2C(C)CC3O)CC1)c1ccc(Cl)cc1
IC50 (second compound 0.1 µM): 259 nM
IC50 (second compound 0.316 µM): 151 nM
IC50 (second compound 1 µM): 101 nM
IC50 (second compound 3.16 µM): < 31.6 nM
IC50 (second compound 10 µM): < 31.6 nM
viability, T/C [17]: 90.3%
viability, T/C [18]: 83.2%
viability, T/C [31]: 43.2%
viability, T/C [32]: 3.61%
viability, T/C (second compound 0.1 µM, first compound 3.16 µM): 3.91%
viability, T/C (second compound 0.1 µM, first compound 10 µM): 6.69%
viability, T/C [23]: 73.8%
viability, T/C [24]: 65.2%
viability, T/C [33]: 22.6%
viability, T/C [34]: 3.04%
viability, T/C (second compound 0.316 µM, first compound 3.16 µM): 3.47%
viability, T/C (second compound 0.316 µM, first compound 10 µM): 6.17%
viability, T/C [29]: 49.6%
viability, T/C [30]: 50.5%
viability, T/C [35]: 17.3%
viability, T/C [36]: 3.25%
viability, T/C (second compound 1 µM, first compound 3.16 µM): 2.88%
viability, T/C (second compound 1 µM, first compound 10 µM): 5.72%
viability, T/C (second compound 3.16 µM, first compound 0.0316 µM): 45.1%
viability, T/C (second compound 3.16 µM, first compound 0.1 µM): 35.2%
viability, T/C (second compound 3.16 µM, first compound 0.316 µM): 11.5%
viability, T/C (second compound 3.16 µM, first compound 1 µM): 3.53%
viability, T/C (second compound 3.16 µM, first compound 3.16 µM): 3.4%
viability, T/C (second compound 3.16 µM, first compound 10 µM): 4.64%
viability, T/C (second compound 10 µM, first compound 0.0316 µM): 30.4%
viability, T/C (second compound 10 µM, first compound 0.1 µM): 27.4%
viability, T/C (second compound 10 µM, first compound 0.316 µM): 8.25%
viability, T/C (second compound 10 µM, first compound 1 µM): 3%
viability, T/C (second compound 10 µM, first compound 3.16 µM): 3.44%
viability, T/C (second compound 10 µM, first compound 10 µM): 4.49%

Cn1ncnc1[C@H]1c2n[nH]c(=O)c3cc(F)cc(c23)N[C@@H]1c1ccc(F)cc1 + CCN1CCN(Cc2ccc(Nc3ncc(F)c(-c4cc(F)c5nc(C)n(C(C)C)c5c4)n3)nc2)CC1
IC50 (second compound 0.01 µM): 18.6 nM
IC50 (second compound 0.0316 µM): 12.1 nM
IC50 (second compound 0.1 µM): 5.76 nM
IC50 (second compound 0.316 µM): 2.84 nM
IC50 (second compound 1 µM): 3.84 nM
viability, T/C [1]: 96%
viability, T/C [2]: 87.3%
viability, T/C [3]: 85.3%
viability, T/C [4]: 58.1%
viability, T/C [5]: 42.3%
viability, T/C [6]: 25.2%
viability, T/C [7]: 74.8%
viability, T/C [8]: 70%
viability, T/C [9]: 63.3%
viability, T/C [10]: 50.3%
viability, T/C [11]: 41.2%
viability, T/C [12]: 28.2%
viability, T/C [13]: 68.3%
viability, T/C [14]: 56.6%
viability, T/C [15]: 54.7%
viability, T/C [16]: 47.2%
viability, T/C [17]: 39.6%
viability, T/C [18]: 28.9%
viability, T/C [19]: 59%
viability, T/C [20]: 54%
viability, T/C [21]: 49.3%
viability, T/C [22]: 44.8%
viability, T/C [23]: 38.2%
viability, T/C [24]: 32.5%
viability, T/C [25]: 62.2%
viability, T/C [26]: 53.9%
viability, T/C [27]: 51.4%
viability, T/C [28]: 45.1%
viability, T/C [29]: 40.8%
viability, T/C [30]: 31.6%
